Literature values in patent publication US12091679B2, “Storage method and banking system of NT cell” (SUNGKWANG MEDICAL FOUNDATION, priority 2015, dated 2024).

Test system: various animal cancer models

Compound | anticancer activity
CC(C)N(C[C@H]1O[C@@H](n2cnc3c(N)ncnc32)[C@H](O)[C@@H]1O)[C@H]1C[C@@H](CCc2nc3cc(C(C)(C)C)ccc3[nH]2)C1 [EPZ5676] | show anticancer activity
Cc1cc(C)c(CNC(=O)c2cc(-c3ccc(CN4CCOCC4)cc3)cc3c2cnn3C2CCCC2)c(=O)[nH]1 [EPZ005687] | show anticancer activity
CC[C@H](C)n1cc(C)c2c(C(=O)NCc3c(C)cc(C)[nH]c3=O)cc(-c3ccc(N4CCNCC4)nc3)cc21 [GSK126] | show anticancer activity
